From patent publication US8383679B2, “Crystal form of calcium 3-acetylaminopropane-1-sulfonate” (Merck Patent Gesellschaft mit beschränkter Haftung, priority 2008, dated 2013)

Columns and labels:
[1] = Enthalpy of solution, 2225 Thermometrics Solution calorimeter; format: physicochemical
[2] = Suspension-conversion experiments; format: physicochemical; settings: suspension of crystals
Excerpt: Suitable suspension media are solvents in which the active compound is soluble, where the active compound is employed in a weight ratio in relation to the respective solvent in the suspension in which the solubility limit of the active compound in the solvent is exceeded, so that the active compound is predominantly in the form of a solid in the suspension. Suitable suspension media are, for example, water, methanol and/or tetrahydrofuran (THE), where water is particularly preferred.

Row | enthalpy of solution ([1]; in water at 25° C.) | conversion of crystal form in suspension [2] | difference in enthalpy of solution between form II and form I ([1]; in water at 25° C.) | SMILES | thermodynamic stability (free Gibbs enthalpy) relative to the other crystal form ([1]; concluded from enthalpies of solution)
1 | -23.1 ± 0.2 J/g | rearrangement to crystal form II | – | CC(=O)NCCCS(=O)(=O)O [form I, calcium 3-acetylaminopropane-1-sulfonate] | –
2 | 16.2 ± 0.2 J/g | – | 6.9 ± 0.4 J/g | CC(=O)NCCCS(=O)(=O)O [form II, calcium 3-acetylaminopropane-1-sulfonate] | thermodynamically more stable than form I
